{"source": "ChEMBL document CHEMBL1201862", "about": "“PubChem BioAssay data set” (2004)", "key": {"[1]": {"molecular_target": "Mitogen-activated protein kinase 10 (Homo sapiens, UniProt P53779)", "assay": "Navigating the Kinome. Panel member name: MAPK10", "type": "functional"}, "[2]": {"molecular_target": "Mitogen-activated protein kinase kinase kinase kinase 4 (Homo sapiens, UniProt O95819)", "type": "functional"}, "[3]": {"molecular_target": "Vascular endothelial growth factor receptor 1 (Homo sapiens, UniProt P17948)", "type": "functional"}, "[4]": {"molecular_target": "Rho-associated protein kinase 1 (Homo sapiens, UniProt Q13464)", "type": "functional"}, "[5]": {"molecular_target": "Macrophage-stimulating protein receptor (Homo sapiens, UniProt Q04912)", "assay": "Navigating the Kinome. Panel member name: MST1R", "type": "functional"}, "[6]": {"molecular_target": "cAMP-dependent protein kinase catalytic subunit alpha (Homo sapiens, UniProt P17612)", "type": "functional"}, "[7]": {"molecular_target": "Dual specificity protein kinase CLK2 (Homo sapiens, UniProt P49760)", "sequence (P49760 whole entry)": "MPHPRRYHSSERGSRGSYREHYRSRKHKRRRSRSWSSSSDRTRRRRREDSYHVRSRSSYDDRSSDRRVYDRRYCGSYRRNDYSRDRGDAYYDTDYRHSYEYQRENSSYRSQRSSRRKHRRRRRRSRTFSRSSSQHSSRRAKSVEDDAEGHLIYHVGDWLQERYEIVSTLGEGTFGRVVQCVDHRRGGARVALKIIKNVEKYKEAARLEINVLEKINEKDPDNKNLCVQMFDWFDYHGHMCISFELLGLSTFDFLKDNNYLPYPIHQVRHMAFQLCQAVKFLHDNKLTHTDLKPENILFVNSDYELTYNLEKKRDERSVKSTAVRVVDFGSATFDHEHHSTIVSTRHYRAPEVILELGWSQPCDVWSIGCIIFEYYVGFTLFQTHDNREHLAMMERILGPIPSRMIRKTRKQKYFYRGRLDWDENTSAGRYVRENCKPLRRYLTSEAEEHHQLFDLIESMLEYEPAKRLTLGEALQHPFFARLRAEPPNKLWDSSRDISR", "type": "functional"}, "[8]": {"molecular_target": "High affinity nerve growth factor receptor (Homo sapiens, UniProt P04629)", "sequence (P04629 whole entry)": "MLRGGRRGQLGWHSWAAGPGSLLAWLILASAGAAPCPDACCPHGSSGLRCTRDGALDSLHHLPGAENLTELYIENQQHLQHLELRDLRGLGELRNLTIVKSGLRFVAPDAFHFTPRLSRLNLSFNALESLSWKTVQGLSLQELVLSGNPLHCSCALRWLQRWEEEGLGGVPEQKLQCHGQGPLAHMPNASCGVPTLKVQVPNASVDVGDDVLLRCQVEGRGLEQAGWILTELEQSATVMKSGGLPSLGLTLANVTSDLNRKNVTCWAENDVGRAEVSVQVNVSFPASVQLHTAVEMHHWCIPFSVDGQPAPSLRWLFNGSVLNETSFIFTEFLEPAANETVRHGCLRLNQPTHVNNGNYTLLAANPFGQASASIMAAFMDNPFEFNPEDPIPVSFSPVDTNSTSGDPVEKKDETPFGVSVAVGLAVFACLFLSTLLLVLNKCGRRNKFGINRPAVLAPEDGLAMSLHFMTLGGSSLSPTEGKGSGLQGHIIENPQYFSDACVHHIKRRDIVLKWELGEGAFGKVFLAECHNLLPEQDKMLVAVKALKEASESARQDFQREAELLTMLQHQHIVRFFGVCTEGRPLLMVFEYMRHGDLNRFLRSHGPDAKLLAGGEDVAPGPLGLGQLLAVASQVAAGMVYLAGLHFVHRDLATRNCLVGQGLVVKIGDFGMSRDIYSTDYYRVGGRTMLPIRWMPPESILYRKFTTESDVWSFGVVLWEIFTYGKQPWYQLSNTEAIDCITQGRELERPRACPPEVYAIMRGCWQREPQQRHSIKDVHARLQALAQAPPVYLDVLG", "type": "functional"}, "[9]": {"molecular_target": "Serine/threonine-protein kinase TAO1 (Homo sapiens, UniProt Q7L7X3)", "sequence (Q7L7X3 whole entry)": "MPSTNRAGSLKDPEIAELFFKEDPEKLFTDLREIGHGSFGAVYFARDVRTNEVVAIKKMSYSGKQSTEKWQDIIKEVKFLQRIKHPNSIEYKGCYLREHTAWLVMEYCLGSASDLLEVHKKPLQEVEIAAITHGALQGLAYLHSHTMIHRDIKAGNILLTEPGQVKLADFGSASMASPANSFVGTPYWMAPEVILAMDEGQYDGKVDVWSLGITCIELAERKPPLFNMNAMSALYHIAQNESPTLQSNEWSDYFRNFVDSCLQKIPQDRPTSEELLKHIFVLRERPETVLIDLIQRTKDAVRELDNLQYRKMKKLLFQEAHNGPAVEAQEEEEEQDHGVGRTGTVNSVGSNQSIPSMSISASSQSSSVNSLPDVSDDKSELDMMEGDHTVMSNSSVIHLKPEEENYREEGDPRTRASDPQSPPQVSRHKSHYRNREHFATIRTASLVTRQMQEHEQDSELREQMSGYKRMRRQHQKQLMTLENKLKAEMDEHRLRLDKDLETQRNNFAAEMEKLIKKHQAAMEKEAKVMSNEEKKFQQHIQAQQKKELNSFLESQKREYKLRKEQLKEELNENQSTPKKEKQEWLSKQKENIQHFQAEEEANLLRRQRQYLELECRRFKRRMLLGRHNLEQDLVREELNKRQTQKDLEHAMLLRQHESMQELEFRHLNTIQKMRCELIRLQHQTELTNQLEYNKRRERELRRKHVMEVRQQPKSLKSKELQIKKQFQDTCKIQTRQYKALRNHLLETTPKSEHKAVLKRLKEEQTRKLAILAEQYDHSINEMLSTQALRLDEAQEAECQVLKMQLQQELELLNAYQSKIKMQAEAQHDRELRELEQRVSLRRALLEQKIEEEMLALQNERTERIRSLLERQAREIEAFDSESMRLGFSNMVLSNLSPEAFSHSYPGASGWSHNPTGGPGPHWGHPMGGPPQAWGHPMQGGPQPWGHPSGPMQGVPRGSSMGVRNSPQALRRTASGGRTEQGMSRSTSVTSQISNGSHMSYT", "type": "functional"}, "[10]": {"molecular_target": "Protein kinase C theta type (Homo sapiens, UniProt Q04759)", "assay": "Navigating the Kinome. Panel member name: PRKCQ", "type": "functional"}, "[11]": {"molecular_target": "Macrophage colony-stimulating factor 1 receptor (Homo sapiens, UniProt P07333)", "type": "functional"}, "[12]": {"molecular_target": "Dual specificity tyrosine-phosphorylation-regulated kinase 1B (Homo sapiens, UniProt Q9Y463)", "sequence (Q9Y463 whole entry)": "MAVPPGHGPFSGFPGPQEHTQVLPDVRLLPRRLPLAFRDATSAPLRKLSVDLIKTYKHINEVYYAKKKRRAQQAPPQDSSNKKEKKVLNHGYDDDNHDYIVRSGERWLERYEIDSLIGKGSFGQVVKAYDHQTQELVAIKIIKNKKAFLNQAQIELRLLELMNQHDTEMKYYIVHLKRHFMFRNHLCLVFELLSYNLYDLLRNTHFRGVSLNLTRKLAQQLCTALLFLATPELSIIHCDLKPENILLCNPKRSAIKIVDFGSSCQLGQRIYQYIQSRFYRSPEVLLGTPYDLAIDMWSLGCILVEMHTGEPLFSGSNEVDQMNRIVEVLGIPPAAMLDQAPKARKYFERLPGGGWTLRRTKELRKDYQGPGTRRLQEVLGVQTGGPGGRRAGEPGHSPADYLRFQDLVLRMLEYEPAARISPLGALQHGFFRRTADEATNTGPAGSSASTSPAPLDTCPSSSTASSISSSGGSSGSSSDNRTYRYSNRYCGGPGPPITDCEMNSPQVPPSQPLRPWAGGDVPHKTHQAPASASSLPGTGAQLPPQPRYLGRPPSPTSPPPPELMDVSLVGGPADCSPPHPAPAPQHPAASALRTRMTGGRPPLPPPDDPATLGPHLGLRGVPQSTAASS", "assay": "Navigating the Kinome. Panel member name: DYRK1B", "type": "functional"}, "[13]": {"molecular_target": "MAP/microtubule affinity-regulating kinase 3 (Homo sapiens, UniProt P27448)", "type": "functional"}, "[14]": {"molecular_target": "Serine/threonine-protein kinase PAK 4 (Homo sapiens, UniProt O96013)", "type": "functional"}, "Cytochrome P450 1A2": {"molecular_target": "T1, Cytochrome P450 1A2 (Homo sapiens, UniProt P05177)", "T1 sequence (P05177 whole entry)": "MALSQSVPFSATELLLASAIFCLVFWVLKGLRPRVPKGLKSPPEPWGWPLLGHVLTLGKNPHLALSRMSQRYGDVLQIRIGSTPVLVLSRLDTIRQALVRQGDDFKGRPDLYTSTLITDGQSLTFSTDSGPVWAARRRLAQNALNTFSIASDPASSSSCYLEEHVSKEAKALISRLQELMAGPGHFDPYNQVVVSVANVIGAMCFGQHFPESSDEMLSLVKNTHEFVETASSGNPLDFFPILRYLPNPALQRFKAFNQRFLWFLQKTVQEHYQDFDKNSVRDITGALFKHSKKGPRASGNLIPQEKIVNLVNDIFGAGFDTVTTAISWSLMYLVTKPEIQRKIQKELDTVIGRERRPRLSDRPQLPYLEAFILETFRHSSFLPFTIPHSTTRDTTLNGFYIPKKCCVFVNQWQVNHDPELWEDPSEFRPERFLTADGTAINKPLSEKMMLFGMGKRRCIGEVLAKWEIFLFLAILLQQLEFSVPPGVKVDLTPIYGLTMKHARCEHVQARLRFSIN"}, "[15]": {"molecular_target": "Vascular endothelial growth factor receptor 2 (Homo sapiens, UniProt P35968)", "type": "functional"}, "[16]": {"molecular_target": "Cyclin-dependent kinase 8 (Homo sapiens, UniProt P49336)", "assay": "Navigating the Kinome. Panel member name: CDK8", "type": "functional"}, "[17]": {"molecular_target": "5'-AMP-activated protein kinase catalytic subunit alpha-1 (Homo sapiens, UniProt Q13131)", "type": "functional"}, "[18]": {"molecular_target": "Tyrosine-protein kinase Fyn (Homo sapiens, UniProt P06241)", "type": "functional"}, "[19]": {"molecular_target": "Proto-oncogene tyrosine-protein kinase receptor Ret (Homo sapiens, UniProt P07949)", "type": "functional"}, "[20]": {"molecular_target": "Insulin-like growth factor 1 receptor (Homo sapiens, UniProt P08069)", "assay": "Navigating the Kinome. Panel member name: IGF1R", "type": "functional"}, "Aurora kinase A": {"molecular_target": "Aurora kinase A (Homo sapiens, UniProt O14965)", "type": "functional"}, "[21]": {"molecular_target": "Tyrosine-protein kinase BTK (Homo sapiens, UniProt Q06187)", "sequence (Q06187 whole entry)": "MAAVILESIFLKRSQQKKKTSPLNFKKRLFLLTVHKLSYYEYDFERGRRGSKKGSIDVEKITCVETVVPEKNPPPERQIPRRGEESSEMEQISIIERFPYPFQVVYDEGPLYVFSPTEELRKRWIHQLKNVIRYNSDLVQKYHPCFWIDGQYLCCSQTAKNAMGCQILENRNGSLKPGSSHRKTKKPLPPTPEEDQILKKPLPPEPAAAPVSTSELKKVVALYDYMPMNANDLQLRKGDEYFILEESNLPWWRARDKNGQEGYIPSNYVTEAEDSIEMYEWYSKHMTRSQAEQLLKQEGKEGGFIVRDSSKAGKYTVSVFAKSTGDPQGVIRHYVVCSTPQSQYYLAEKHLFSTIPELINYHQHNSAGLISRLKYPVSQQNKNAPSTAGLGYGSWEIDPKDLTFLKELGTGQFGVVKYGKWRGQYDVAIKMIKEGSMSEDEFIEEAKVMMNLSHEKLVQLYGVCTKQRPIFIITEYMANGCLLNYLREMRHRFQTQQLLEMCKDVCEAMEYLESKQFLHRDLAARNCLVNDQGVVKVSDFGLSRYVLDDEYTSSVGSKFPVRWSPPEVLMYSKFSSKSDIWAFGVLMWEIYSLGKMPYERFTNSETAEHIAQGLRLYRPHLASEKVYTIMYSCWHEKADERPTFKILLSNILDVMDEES", "type": "functional"}, "[22]": {"molecular_target": "Cyclin-dependent kinase 7 (Homo sapiens, UniProt P50613)", "type": "functional"}, "[23]": {"molecular_target": "Mast/stem cell growth factor receptor Kit (Homo sapiens, UniProt P10721)", "sequence (P10721 whole entry)": "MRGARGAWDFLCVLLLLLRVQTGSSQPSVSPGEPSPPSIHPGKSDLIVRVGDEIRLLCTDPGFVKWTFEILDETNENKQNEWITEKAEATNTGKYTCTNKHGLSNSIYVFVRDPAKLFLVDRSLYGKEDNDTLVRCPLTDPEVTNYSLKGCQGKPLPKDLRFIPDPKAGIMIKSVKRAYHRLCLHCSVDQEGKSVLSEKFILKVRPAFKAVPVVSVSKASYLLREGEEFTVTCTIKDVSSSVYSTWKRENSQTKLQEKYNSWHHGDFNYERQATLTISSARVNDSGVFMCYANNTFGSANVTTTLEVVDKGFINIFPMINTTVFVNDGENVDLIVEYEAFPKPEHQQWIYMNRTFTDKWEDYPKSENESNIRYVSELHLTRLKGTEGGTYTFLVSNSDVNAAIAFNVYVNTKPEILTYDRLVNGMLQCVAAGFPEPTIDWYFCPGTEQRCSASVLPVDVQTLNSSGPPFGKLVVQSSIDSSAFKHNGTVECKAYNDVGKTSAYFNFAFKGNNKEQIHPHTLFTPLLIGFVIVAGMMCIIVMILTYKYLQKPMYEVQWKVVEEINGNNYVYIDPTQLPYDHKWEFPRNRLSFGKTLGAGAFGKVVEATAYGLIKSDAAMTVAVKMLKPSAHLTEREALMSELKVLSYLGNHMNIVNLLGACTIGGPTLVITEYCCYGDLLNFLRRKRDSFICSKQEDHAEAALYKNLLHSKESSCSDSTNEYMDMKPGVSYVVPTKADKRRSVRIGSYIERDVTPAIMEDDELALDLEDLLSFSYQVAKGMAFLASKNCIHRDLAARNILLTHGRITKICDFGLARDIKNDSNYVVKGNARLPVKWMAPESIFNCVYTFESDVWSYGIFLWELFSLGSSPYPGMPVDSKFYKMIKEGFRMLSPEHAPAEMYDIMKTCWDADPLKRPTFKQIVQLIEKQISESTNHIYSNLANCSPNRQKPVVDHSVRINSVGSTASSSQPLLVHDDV", "type": "functional"}, "[24]": {"molecular_target": "Dual specificity protein kinase CLK4 (Homo sapiens, UniProt Q9HAZ1)", "type": "functional"}, "[25]": {"molecular_target": "Mitogen-activated protein kinase 8 (Homo sapiens, UniProt P45983)", "sequence (P45983 whole entry)": "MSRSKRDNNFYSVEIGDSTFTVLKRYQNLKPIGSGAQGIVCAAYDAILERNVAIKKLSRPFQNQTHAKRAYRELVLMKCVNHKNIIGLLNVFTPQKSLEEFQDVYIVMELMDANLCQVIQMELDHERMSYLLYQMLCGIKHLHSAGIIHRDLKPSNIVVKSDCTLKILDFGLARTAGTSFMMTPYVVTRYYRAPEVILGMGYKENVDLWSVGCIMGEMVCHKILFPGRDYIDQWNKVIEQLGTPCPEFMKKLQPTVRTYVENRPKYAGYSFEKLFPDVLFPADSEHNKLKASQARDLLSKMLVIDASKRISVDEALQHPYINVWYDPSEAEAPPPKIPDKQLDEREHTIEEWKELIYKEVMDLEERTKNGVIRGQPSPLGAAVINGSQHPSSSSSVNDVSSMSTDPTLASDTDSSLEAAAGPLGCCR", "type": "functional"}, "Activin receptor type-1": {"molecular_target": "T2, Activin receptor type-1 (Homo sapiens, UniProt Q04771)", "T2 sequence (Q04771 whole entry)": "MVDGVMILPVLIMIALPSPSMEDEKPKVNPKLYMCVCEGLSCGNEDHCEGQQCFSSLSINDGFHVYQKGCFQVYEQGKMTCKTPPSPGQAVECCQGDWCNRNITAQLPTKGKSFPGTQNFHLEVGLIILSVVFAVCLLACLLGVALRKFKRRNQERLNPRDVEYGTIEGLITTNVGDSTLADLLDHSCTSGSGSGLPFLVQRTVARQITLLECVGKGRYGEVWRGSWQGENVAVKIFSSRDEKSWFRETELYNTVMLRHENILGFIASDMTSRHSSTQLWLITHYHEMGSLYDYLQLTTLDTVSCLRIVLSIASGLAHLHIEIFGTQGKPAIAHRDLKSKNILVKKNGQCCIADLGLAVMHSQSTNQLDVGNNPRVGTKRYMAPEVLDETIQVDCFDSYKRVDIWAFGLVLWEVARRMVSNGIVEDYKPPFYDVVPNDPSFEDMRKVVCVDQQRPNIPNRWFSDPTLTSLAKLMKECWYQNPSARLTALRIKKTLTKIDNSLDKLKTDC", "assay": "Navigating the Kinome. Panel member name: ACVR1", "type": "functional"}, "[26]": {"molecular_target": "Tyrosine-protein kinase JAK2 (Homo sapiens, UniProt O60674)", "type": "functional"}, "[27]": {"molecular_target": "Hepatocyte growth factor receptor (Homo sapiens, UniProt P08581)", "type": "functional"}, "Focal adhesion kinase 1": {"molecular_target": "Focal adhesion kinase 1 (Homo sapiens, UniProt Q05397)", "type": "functional"}, "[28]": {"molecular_target": "Death-associated protein kinase 3 (Homo sapiens, UniProt O43293)", "type": "functional"}, "[29]": {"molecular_target": "Mitogen-activated protein kinase 9 (Homo sapiens, UniProt P45984)", "type": "functional"}}, "note": "Activity calls are given as the source filed them."}
{"smiles": "NC(=O)c1ccc(-c2nc(-c3ccc4c(c3)OCO4)c(-c3ccccn3)[nH]2)cc1", "note": "[SB-431542]", "values": [{"measurement": "Ki", "setting": "[1]", "result": "> 3.16 µM (inactive)"}, {"measurement": "Ki", "setting": "[2]", "result": "> 5.01 µM (inactive)"}, {"measurement": "Ki", "setting": "[3]", "result": "> 3.98 µM (inactive)"}, {"measurement": "Ki", "setting": "[4]", "result": "> 3.98 µM (inactive)"}, {"measurement": "Ki", "setting": "[5]", "result": "> 3.98 µM (inactive)"}, {"measurement": "Ki", "setting": "[6]", "result": "> 1.26 µM (inactive)"}, {"measurement": "Ki", "setting": "[7]", "result": "> 3.98 µM (inactive)"}, {"measurement": "Ki", "setting": "[8]", "result": "> 3.16 µM (inactive)"}, {"measurement": "Ki", "setting": "[9]", "result": "> 2.51 µM (inactive)"}, {"measurement": "Ki", "setting": "[10]", "result": "> 2.51 µM (inactive)"}, {"measurement": "Ki", "setting": "[11]", "result": "> 2.51 µM (inactive)"}, {"measurement": "Ki", "setting": "[12]", "result": "> 2.51 µM (inactive)"}, {"measurement": "Ki", "setting": "[13]", "result": "> 5.01 µM (inactive)"}, {"measurement": "Ki", "setting": "[14]", "result": "> 5.01 µM (inactive)"}, {"measurement": "AC50", "setting": "Cytochrome P450 1A2", "result": "15.8 µM (inconclusive)"}, {"measurement": "Ki", "setting": "[15]", "result": "> 2.51 µM (inactive)"}, {"measurement": "Ki", "setting": "[16]", "result": "> 3.98 µM (inactive)"}, {"measurement": "Ki", "setting": "[17]", "result": "> 3.16 µM (inactive)"}, {"measurement": "Ki", "setting": "[18]", "result": "> 6.31 µM (inactive)"}, {"measurement": "Ki", "setting": "[19]", "result": "> 3.16 µM (inactive)"}, {"measurement": "Ki", "setting": "[20]", "result": "> 2.51 µM (inactive)"}, {"measurement": "Ki", "setting": "Aurora kinase A", "result": "> 1.58 µM (inactive)"}, {"measurement": "Ki", "setting": "[21]", "result": "> 6.31 µM (inactive)"}, {"measurement": "Ki", "setting": "[22]", "result": "> 3.98 µM (inactive)"}, {"measurement": "Ki", "setting": "[23]", "result": "> 6.31 µM (inactive)"}, {"measurement": "Ki", "setting": "[24]", "result": "> 2.51 µM (inactive)"}, {"measurement": "Ki", "setting": "[25]", "result": "> 5.01 µM (inactive)"}, {"measurement": "Ki", "setting": "Activin receptor type-1", "result": "> 3.98 µM (inactive)"}, {"measurement": "Ki", "setting": "[26]", "result": "> 2.51 µM (inactive)"}, {"measurement": "Ki", "setting": "[27]", "result": "> 2.51 µM (inactive)"}, {"measurement": "Ki", "setting": "Focal adhesion kinase 1", "result": "> 6.31 µM (inactive)"}, {"measurement": "Ki", "setting": "[28]", "result": "> 5.01 µM (inactive)"}, {"measurement": "Ki", "setting": "[29]", "result": "> 3.98 µM (inactive)"}]}
